Source: DBAASP
Values after ≈ are worked out from the molar mass of the structure shown.

Assays:
Assay in all cases: ≥ marks a high value that may be exact or a test limit, other limits are often not marked, values filed in µg/mL are converted to µM
[1] = tested on: Escherichia coli ATCC 25922
[2] = tested on: Klebsiella pneumoniae ATCC 700603
[3] = tested on: Pseudomonas aeruginosa ATCC 27853
[4] = tested on: Staphylococcus aureus ATCC 29213
[5] = tested on: Staphylococcus aureus ATCC 33591
[6] = tested on: Staphylococcus aureus ATCC 700699
[7] = tested on: Bacillus subtilis DSM 347
[8] = tested on: Escherichia coli DH5alpha
Proteus mirabilis = tested on: Proteus mirabilis
Pseudomonas aeruginosa = tested on: Pseudomonas aeruginosa
Staphylococcus aureus = tested on: Staphylococcus aureus
Streptococcus pyogenes = tested on: Streptococcus pyogenes

Compound | MIC [1] [µM] | MIC [2] [µM] | MIC [3] [µM] | MIC [4] [µM] | MIC [5] [µM] | MIC [6] [µM] | MIC [7] [µM] | MIC [8] [µM] | MIC (Proteus mirabilis) [µM] | MIC (Pseudomonas aeruginosa) [µM] | MIC (Staphylococcus aureus) [µM] | MIC (Streptococcus pyogenes) [µM]
CC[C@H](C)[C@H](NC(=O)[C@H](CC(=O)O)NC(=O)[C@H](CCCCN)NC(=O)[C@H](C)NC(=O)[C@H](C)NC(=O)CNC(=O)[C@H](CCCCN)NC(=O)[C@H](CC(C)C)NC(=O)[C@H](C)NC(=O)[C@H](CC(=O)O)NC(=O)[C@@H](NC(=O)[C@@H](NC(=O)CN)C(C)C)C(C)C)C(=O)N[C@@H](C)C(=O)NCC(=O)N[C@@H](Cc1cnc[nH]1)C(=O)N[C@@H](CC(C)C)C(=O)N[C@@H](C)C(=O)N[C@@H](CO)C(=O)N[C@@H](CCCCN)C(=O)N[C@H](C(=O)N[C@@H](CCSC)C(=O)N[C@@H](CC(N)=O)C(=O)N[C@@H](CCCCN)C(=O)N[C@@H](CC(C)C)C(N)=O)C(C)C [GVVDALKGAAKDIAGHLASKVMNKL] | > 100 | > 100 | > 100 | > 100 | ≥ 100 | ≥ 100 |  |  |  |  |  | 
CC[C@H](C)[C@H](NC(=O)CN)C(=O)NCC(=O)N[C@@H](CCCCN)C(=O)N[C@@H](Cc1ccccc1)C(=O)N[C@H](C(=O)N[C@@H](Cc1cnc[nH]1)C(=O)N[C@@H](C)C(=O)N[C@H](C(=O)N[C@@H](CCCCN)C(=O)N[C@@H](CCCCN)C(=O)N[C@@H](Cc1c[nH]c2ccccc12)C(=O)NCC(=O)N[C@@H](CCCCN)C(=O)N[C@H](C(=O)N[C@@H](Cc1ccccc1)C(=O)N[C@H](C(=O)NCC(=O)N[C@@H](CCC(=O)O)C(=O)N[C@H](C(=O)N[C@@H](C)C(=O)N[C@@H](CCCCN)C(=O)N[C@@H](CO)C(N)=O)[C@@H](C)CC)[C@@H](C)CC)[C@@H](C)O)C(C)C)[C@@H](C)CC [GIGKFIHAVKKWGKTFIGEIAKS] |  |  |  |  |  |  | 1.6 (≈ 4.02 µg/mL) | 0.8 (≈ 2.01 µg/mL) |  |  |  | 
NC(N)=NCCC[C@H](NC(=O)[C@H](CCCN=C(N)N)NC(=O)[C@H](CCCN=C(N)N)NC(=O)[C@H](CCCN=C(N)N)NC(=O)[C@H](CCCN=C(N)N)NC(=O)[C@H](CCCN=C(N)N)NC(=O)[C@H](CCCN=C(N)N)NC(=O)[C@H](CCCN=C(N)N)NC(=O)[C@H](Cc1c[nH]c2ccccc12)NC(=O)[C@H](Cc1c[nH]c2ccccc12)NC(=O)[C@@H](N)Cc1c[nH]c2ccccc12)C(=O)O [WWWRRRRRRRR] |  |  |  |  |  |  |  |  | ≥ 35 | > 35 | 5.48 (≈ 10 µg/mL) | 0.479 (≈ 0.875 µg/mL)

Further lines, results first:

MIC [1] [µM] | MIC [2] [µM] | MIC [3] [µM] | MIC [4] [µM] | MIC [5] [µM] | MIC [6] [µM] | MIC [7] [µM] | MIC [8] [µM] | MIC (Proteus mirabilis) [µM] | MIC (Pseudomonas aeruginosa) [µM] | MIC (Staphylococcus aureus) [µM] | MIC (Streptococcus pyogenes) [µM] | Compound
6.25 (≈ 16.2 µg/mL) | 25 (≈ 64.8 µg/mL) | 50 (≈ 130 µg/mL) | 100 (≈ 259 µg/mL) | 25 (≈ 64.8 µg/mL) | ≥ 50 |  |  |  |  |  |  | CC[C@H](C)[C@H](NC(=O)[C@H](CC(=O)O)NC(=O)[C@H](CCCCN)NC(=O)[C@H](C)NC(=O)[C@H](C)NC(=O)CNC(=O)[C@H](CCCCN)NC(=O)[C@H](CC(C)C)NC(=O)[C@@H](NC(=O)[C@H](CC(=O)O)NC(=O)[C@@H](NC(=O)[C@@H](NC(=O)CN)C(C)C)C(C)C)[C@@H](C)CC)C(=O)N[C@@H](CC(C)C)C(=O)NCC(=O)N[C@@H](Cc1cnc[nH]1)C(=O)N[C@@H](CC(C)C)C(=O)N[C@@H](C)C(=O)N[C@@H](CO)C(=O)N[C@@H](CCCCN)C(=O)N[C@H](C(=O)N[C@@H](CCSC)C(=O)N[C@@H](CC(N)=O)C(=O)N[C@@H](CCCCN)C(=O)N[C@@H](CC(C)C)C(N)=O)C(C)C [GVVDILKGAAKDILGHLASKVMNKL]
 |  |  |  |  |  |  |  | 31.8 (≈ 64 µg/mL) | > 31.8 | 5.96 (≈ 12 µg/mL) | 0.497 (≈ 1 µg/mL) | NC(N)=NCCC[C@H](NC(=O)[C@H](Cc1c[nH]c2ccccc12)NC(=O)[C@H](CCCN=C(N)N)NC(=O)[C@H](CCCN=C(N)N)NC(=O)[C@H](Cc1c[nH]c2ccccc12)NC(=O)[C@H](CCCN=C(N)N)NC(=O)[C@H](CCCN=C(N)N)NC(=O)[C@H](Cc1c[nH]c2ccccc12)NC(=O)[C@H](CCCN=C(N)N)NC(=O)[C@H](CCCN=C(N)N)NC(=O)[C@H](Cc1c[nH]c2ccccc12)NC(=O)[C@@H](N)CCCN=C(N)N)C(=O)O [RWRRWRRWRRWR]
